Data published in patent publication US20230000808A1, “COMPOSITIONS AND METHODS EXCLUDING OR WITH REDUCED GLUTAMINE FOR THE TREATMENT OF HEMOGLOBINOPATHIES AND THALASSEMIAS” (AXCELLA HEALTH INC., priority 2019, published 2023).

How the values were obtained:
ICAM-1 = ICAM-1 cell integrated intensity in HLMVEC treated with TNF-α (immunofluorescence); assay type: cell-based, human; conditions: HLMVEC + 0.5 ng/mL TNF-α, 24 h; amino acids 20x HMDB, Nac/Cit/Car 5 mM as bracketed
Procedure: (§1) Primary Human Lung Microvascular Endothelial Cells (HLMVEC; Lonza) were seeded at 6,000 cells per well in Endothelial Cell Growth Basal Medium-2 (Lonza) supplemented with Fetal Bovine Serum (FBS; Lonza), human EGF (Lonza), human VEGF (Lonza), R3-Insulin-like Growth Factor-1 (Lonza), ascorbic acid (Lonza), hydrocortisone (Lonza), human FGF-beta (Lonza), and gentamicin/amphotericin-b (Lonza) in a 96-well plate (Thermo Fisher). The cells were incubated for 45 minutes at room temperature, then incubated overnight at 37° C./5% CO2.
(§2) Following overnight incubation, cell were washed once with 150 μL of Dulbecco's phosphate buffered saline (DPBS; Gibco), and then treated with Endothelial Basal Medium MCB-131 (amino acid, glucose, sodium pyruvate, and phenol red free; US Biologicals) containing a defined custom amino acid concentration based on physiological concentrations in blood of patients with SCD (thus recapitulating observed metabolic imbalances such as the depletion of certain essential amino acids including arginine and aspartate and enrichment of certain non-essential amino acids including glutamate and asparagine), dialyzed FBS (Hyclone), human EGF (Lonza), human VEGF (Lonza), R3-Insulin-like Growth Factor-1 (Lonza), ascorbic acid (Lonza), hydrocortisone (Lonza), human FGF-beta (Lonza), and gentamicin/amphotericin-b (Lonza), glucose, 10 mM HEPES, sodium pyruvate, and sodium bicarbonate supplemented with one of the following: • a. PBS (vehicle control), • b. 0.5 ng/mL Tumor Necrosis Factor alpha (TNFα) and PBS, or; • c. 0.5 ng/mL TNF-α and amino acid treatments at 20× mean physiological concentrations in plasma based on values published in the Human Metabolome Database (HMDB) in PBS.
(§3) After 24 hours of treatment, cells were washed once with 150 μL of DPBS (Gibco), then fixed with 4% paraformaldehyde. Following fixation, cells were stained with anti-ICAM-1 [MEM-111] (mouse IgG2a anti-human; abcam) and anti-VCAM1 [1.4C3] (mouse IgG1, K anti-human; abcam) primary antibodies at 1000×, and 100× dilutions respectively. Cells were then stained with Goat anti-Mouse IgG2a Cross-Adsorbed Secondary Antibody, Alexa Fluor 594 (Invitrogen) and Goat anti-Mouse IgG1 Cross-Adsorbed Secondary Antibody, Alexa Fluor 647 (Invitrogen) secondary antibodies. Nuclei were stained with Hoechst 3342 (Life Technologies).
(§4) Antibody binding was detected by fluorescence microscopy using a high content imager (Molecular Devices). Images were analyzed using MetaXpress 6 software to determine the integrated intensity per cell for each wavelength corresponding to ICAM-1 or VCAM-1.

IL-6 = assay: Secreted IL-6 in HLMVEC treated with TNF-α (FirePlex); assay type: cell-based, human; conditions: HLMVEC + 0.5 ng/mL TNF-α, 24 h; amino acids 20x HMDB, Nac/Cit/Car 5 mM as bracketed
Procedure: as §1, §2
Supernatants were analyzed for IL-6 concentrations using a Human Cytokines FirePlex-HT Panel 1 kit (abcam) according to the manufacturer-supplied instructions. Particles were imaged on a high content imager (Molecular Devices), and results were interpolated from a standard curve with FirePlex Analysis Workbench Software (abcam) according manufacturer's recommendations.

[1] = Pharmacokinetics following oral dose administration to male Sprague-Dawley rats (plasma amino acids, LC-MS); conditions: analyte after oral gavage of RCitNacQCarLHKVS
Procedure: A pharmacokinetic (PK) analysis was performed on plasma concentrations of various combinations of amino acid compounds administered by oral gavage to male Sprague-Dawley rats. Four animals were dosed with RCitNacQCarLHKVS, a test article comprising ten amino acid components: arginine, citrulline, N-acetylcysteine (Nac), glutamine, carnitine, leucine, histidine, lysine, valine, and serine (Table 19). Animals were fasted for 2 hours prior to dose administration. Plasma samples were taken immediately pre-dose and 0.5, 1, 2, 3, 4, and 5 hours post-dose.
Bioanalysis of collected plasma samples for amino acid content was performed at Axcella Health using an LC-MS method (Section 2.1). Bioanalytical data were analyzed using noncompartmental analysis with PHOENIX® WINNONLIN® (v8.1).
An LC/MS method utilizing HILIC chromatography and high-resolution mass spectrometry was used to quantify amino acids in rat plasma. […]
PK parameters of test article components were determined from individual rat plasma concentration-time data by employing a noncompartmental approach using Phoenix WINNONLIN® (Version 8.1) software. […] This program analyzed data using the standard methods described by Gibaldi and Perrier (see M. Gibaldi and D. Perrier, Pharmacokinetics, 2nd edition, New York: Marcel-Dekker, Inc.; 1982.).

HLMVEC = assay: META-rank score, composite of VCAM1, ICAM1 and IL6 in the HLMVEC model; assay type: cell-based, human; conditions: HLMVEC + TNF-α; lower score = more optimal; 20x HMDB / 5 mM
Procedure: The ability of single amino acids and combinations to simultaneously impact these phenotypes was measured by a META-rank score (Tables 17 and 18). META-rank score is a composite measure that considers the optimal impact on all 3 phenotypes (e.g. decrease VCAM1, ICAM1, and IL6) in the HLMVEC model.

VCAM-1 = VCAM-1 cell integrated intensity in HLMVEC treated with TNF-α (immunofluorescence); assay type: cell-based, human
Procedure: as §1, §2, §3, §4

[2] = test system: RBCs of healthy whole blood; assay: RBC deformability (Elongation Index, LORRCA ektacytometry), ex vivo TBHP oxidation of healthy whole blood; assay type: cell-based, human; conditions: healthy donor 2, single amino acid treatments
Excerpt: Whole blood from healthy African American and/or Hispanic donors was obtained from Research Blood Components, LLC based on the following donor selection criteria: Adult age (between 18 and 50 years), normal BMI (<30), and absence of other confounding clinical conditions. Whole blood from SCD donors were obtained from BioIVT based on the following donor selection criteria: Patients with genotypes HbSS, HbSC, HbS/β^0 and at least 1-2 months gap since last blood transfusion. Whole blood was shipped on ice on the same day as blood draw. Upon receipt, the blood sample was aliquoted and stored in the refrigerator until used for studies.
RBC deformability measurements were conducted with the Laser Optical Rotational Red Cell Analyzer (LORRCA) from RR Mechatronics in a temperature-controlled environment (37° C.). Briefly, an even layer of RBCs suspended in polyvinylpyrrolidone (PVP) is subjected to shear stress gradient (0.3 to 30 Pa) through two concentric cylinders and the resulting changes in RBC shape or deformability are measured by a laser beam diffraction pattern. The captured images of RBC shape in response to increasing shear stress are then analyzed by the LORRCA program to calculate Elongation Index (EI).
Healthy RBCs have higher deformability ≥0.5 EI and SCD RBCs have lower deformability or EI values as studied by LORRCA ektacytometry in the field. […] The induced hemolysis model in this disclosure involves use of tert-butyl hydroperoxide (TBHP) to lower EI of RBCs.
The ex vivo hemolysis study disclosed here involves overnight treatment of whole blood with vehicle as a control and specific amino acids followed by rapid oxidation (5 min) with TBHP. Method for oxidation of whole blood with tert-butyl hydroperoxide has been used in prior literature (Diederich L, et al, Front Physiol. 2018 May 11; 9:332). RBC deformability or shape changes are then measured with LORRCA ektacytometry.
Whole blood aliquots stored in the fridge were brought up to room temperature while gently shaking on a rocker at low speed for an hour to ensure gradual and uniform suspension of red blood cells prior to deformability measurements. Vehicle control used in the study was 1× Dulbecco's […]) and amino acids disclosed herein were added (at either final 10× or 2.5 mM concentration as indicated) to corresponding vehicle and amino acid treatment conditions. The samples were then incubated overnight at 37° C. The next day, 25 μl of whole blood was taken from each treatment condition and added to 5 mL Elon ISO viscous solution from RR Mechatronics. The sample was inverted 15-20 times to ensure proper mixing of the treated RBCs with the Elon ISO solution followed by loading the sample on LORRCA and capturing RBC deformability or shape measurements over the applied shear gradient. The remaining whole blood treatments were returned to incubator (37° C.) until deformability measurements were completed for all treatments. To the remaining whole blood treatment samples, TBHP solution (5.0-6.0 M in Decane, Sigma) was added at 2.5 mM final concentration from a 100 mM freshly prepared stock and incubated for further 5 min at 37° C. 25 μl of this TBHP-treated sample was immediately removed at the end of the 5 min incubation and added to the Elon ISO solution for RBC deformability measurement after oxidation. Included in the Tables 13-15 are EI measurements at ½ EImax shear stress 1.69 Pa and EImax shear stress 30 Pa from these studies and FIG. 1 captures EI measurements for all shear stress points for the indicated treatment conditions.

C[N+](C)(C)CC(O)CC(=O)[O-] (centres unmarked) [Car, carnitine]
ICAM-1 Cell Integrated Intensity Median (ICAM-1): −0.013 | Secreted IL6 Median (IL-6): −0.022 | plasma concentration over the five-hour time course [1]: continuously increased | Meta-Rank (Table 18) (HLMVEC): 12.5 | Metarank (Table 17) (HLMVEC): 24 | VCAM-1 expression in HLMVEC (VCAM-1; 0.5 ng/mL TNF-α, amino acids at 20× HMDB, 24 hours): moderate effect | VCAM-1 Cell Integrated Intensity Median (VCAM-1; HLMVEC + 0.5 ng/mL TNF-α, 24 h, amino acids 20x HMDB, Nac/Cit/Car 5 mM as bracketed): −0.017 | EI over vehicle control, both ½ EImax and EImax [2]: higher than the vehicle
